According to ChEMBL document CHEMBL1156480, “Insensitivity to Abeta42-lowering nonsteroidal anti-inflammatory drugs and gamma-secretase inhibitors is common among aggressive presenilin-1 mutations” (J Biol Chem, 2007):

Legend:
Assay type in all cases: cell-based
Parameters in all cases: scale not given: the % may be the effect or the level left
[1] = system: Presenilin-1 (Homo sapiens), P49768 [M292D]; experiment: Reduction of human PS1 M292D mutant-induced amyloid beta42 level in CHO cells overexpressing human APP751 at 60 uM after 24 hrs by liquid phase electrochemiluminescence assay relative to control
[2] = system: Presenilin-1 (Homo sapiens), P49768 [L166P]; experiment: Reduction of human PS1 L166P mutant-induced amyloid beta42 level in CHO cells overexpressing human APP751 at 30 uM after 24 hrs by liquid phase electrochemiluminescence assay relative to control
[3] = system: Presenilin-1 (Homo sapiens), P49768 [L166P]; experiment: Reduction of human PS1 L166P mutant-induced amyloid beta42 level in CHO cells overexpressing human APP751 at 60 uM after 24 hrs by liquid phase electrochemiluminescence assay relative to control
[4] = system: Presenilin-1 (Homo sapiens), P49768 [G384A]; experiment: Reduction of human PS1 G384A mutant-induced amyloid beta42 level in CHO cells overexpressing human APP751 at 60 uM after 24 hrs by liquid phase electrochemiluminescence assay relative to control
[5] = system: Presenilin-1 (Homo sapiens), P49768 [S290C]; experiment: Reduction of human PS1 S290C mutant-induced amyloid beta-42 level in CHO cells overexpressing human APP751 at 60 uM after 24 hrs by liquid phase electrochemiluminescence assay relative to control
[6] = system: Presenilin-1 (Homo sapiens), P49768 [G384A]; experiment: Reduction of human PS1 G384A mutant-induced amyloid beta42 level in CHO cells overexpressing human APP751 at 30 uM after 24 hrs by liquid phase electrochemiluminescence assay relative to control
[7] = system: Presenilin-1 (Homo sapiens), P49768 [M292D]; experiment: Reduction of human PS1 M292D mutant-induced amyloid beta-42 level in CHO cells overexpressing human APP751 at 30 uM after 24 hrs by liquid phase electrochemiluminescence assay relative to control
[8] = system: Presenilin-1 (Homo sapiens), P49768 [M292D,M146L]; experiment: Reduction of human PS1 M292D/M146L mutant-induced amyloid beta42 level in CHO cells overexpressing human APP751 at 60 uM after 24 hrs by liquid phase electrochemiluminescence assay relative to control
CHO [9] = experiment: Reduction of human PS1 delta exon9 mutant-induced amyloid beta-42 level in CHO cells overexpressing human APP751 at 60 uM after 24 hrs by liquid phase electrochemiluminescence assay relative to control
CHO [10] = experiment: Reduction of human PS1 delta 291 to 319 deletion mutant-induced amyloid beta-42 level in CHO cells overexpressing human APP751 at 30 uM after 24 hrs by liquid phase electrochemiluminescence assay relative to control
[11] = molecular target: Presenilin-1 (Homo sapiens) (UniProt P49768); experiment: Reduction of human wild type human PS1-induced amyloid beta-42 level in CHO cells overexpressing human APP751 at 60 uM after 24 hrs by liquid phase electrochemiluminescence assay relative to control
[12] = system: Presenilin-1 (Homo sapiens), P49768 [M292D,M146L]; experiment: Reduction of human PS1 M292D/M146L mutant-induced amyloid beta-42 level in CHO cells overexpressing human APP751 at 30 uM after 24 hrs by liquid phase electrochemiluminescence assay relative to control
[13] = system: Presenilin-1 (Homo sapiens), P49768 [S290C,M292D]; experiment: Reduction of human PS1 S290C/M292D mutant-induced amyloid beta-42 level in CHO cells overexpressing human APP751 at 30 uM after 24 hrs by liquid phase electrochemiluminescence assay relative to control
CHO [14] = experiment: Reduction of human PS1 delta 291 to 319 deletion mutant-induced amyloid beta-42 level in CHO cells overexpressing human APP751 at 60 uM after 24 hrs by liquid phase electrochemiluminescence assay relative to control
[15] = system: Presenilin-1 (Homo sapiens), P49768 [P117L]; experiment: Reduction of human PS1 P117L mutant-induced amyloid beta42 level in CHO cells overexpressing human APP751 at 60 uM after 24 hrs by liquid phase electrochemiluminescence assay relative to control
CHO [16] = experiment: Reduction of human PS1 delta exon9 mutant-induced amyloid beta-42 level in CHO cells overexpressing human APP751 at 30 uM after 24 hrs by liquid phase electrochemiluminescence assay relative to control
[17] = system: Presenilin-1 (Homo sapiens), P49768 [P117L]; experiment: Reduction of human PS1 P117L mutant-induced amyloid beta42 level in CHO cells overexpressing human APP751 at 30 uM after 24 hrs by liquid phase electrochemiluminescence assay relative to control
[18] = system: Presenilin-1 (Homo sapiens), P49768 [S290C]; experiment: Reduction of human PS1 S290C mutant-induced amyloid beta-42 level in CHO cells overexpressing human APP751 at 30 uM after 24 hrs by liquid phase electrochemiluminescence assay relative to control
[19] = molecular target: Presenilin-1 (Homo sapiens) (UniProt P49768); experiment: Reduction of wild type human PS1-induced amyloid beta42 level in CHO cells overexpressing human APP751 at 30 uM after 24 hrs by liquid phase electrochemiluminescence assay relative to control

Activity [1]: 73.9%
Activity [2]: 99.5%
Activity [3]: 99.2%
Activity [4]: 90.3%
Activity [5]: 65.9%
Activity [6]: 95.1%
Activity [7]: 89.5%
Activity [8]: 58.5%
Activity [11]: 61.6%
Activity [12]: 73.2%
Activity [13]: 82.4%
Activity [15]: 88.5%
Activity [17]: 100%
Activity [18]: 83.8%
Activity [19]: 78.2%
Structure (SMILES): CSc1ccc(/C=C2/C(C)=C(CC(=O)O)c3cc(F)ccc32)cc1
Activity (CHO [9]): 99.5%
Activity (CHO [10]): 88.7%
Activity (CHO [14]): 82.7%
Activity (CHO [16]): 99.7%
